Results as given in ChEMBL document CHEMBL1158685, “Potent CYP3A4 inhibitory constituents of Piper cubeba” (J Nat Prod, 2005).
pIC50: −log10 of the molar value.

Tests used:
[1] = target: Cytochrome P450 3A4 (Homo sapiens, UniProt P08684); test: Inhibition of human liver microsome CYP3A4 in assessed as [14C]formaldehyde formation; type: ADME, microsomes
[2] = target: Cytochrome P450 2D6 (Homo sapiens, UniProt P10635); test: Inhibition of human liver microsome CYP2D6 in assessed as [14C]formaldehyde formation; type: ADME, microsomes
Chain of Cytochrome P450 2D6 (P10635 whole entry): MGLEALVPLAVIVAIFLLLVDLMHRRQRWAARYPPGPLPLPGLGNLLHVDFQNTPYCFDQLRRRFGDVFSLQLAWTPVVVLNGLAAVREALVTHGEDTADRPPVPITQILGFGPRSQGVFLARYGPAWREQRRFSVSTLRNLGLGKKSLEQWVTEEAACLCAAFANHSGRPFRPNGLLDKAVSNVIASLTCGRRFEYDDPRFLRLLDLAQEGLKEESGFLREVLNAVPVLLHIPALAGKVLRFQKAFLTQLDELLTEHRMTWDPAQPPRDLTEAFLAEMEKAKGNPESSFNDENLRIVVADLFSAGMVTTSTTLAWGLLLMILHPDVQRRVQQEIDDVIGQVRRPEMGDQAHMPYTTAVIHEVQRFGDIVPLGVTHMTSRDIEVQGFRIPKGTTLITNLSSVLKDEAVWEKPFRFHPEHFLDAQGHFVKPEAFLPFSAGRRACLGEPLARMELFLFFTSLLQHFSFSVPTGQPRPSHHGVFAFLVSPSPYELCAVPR

Chain of Cytochrome P450 3A4 (P08684 whole entry): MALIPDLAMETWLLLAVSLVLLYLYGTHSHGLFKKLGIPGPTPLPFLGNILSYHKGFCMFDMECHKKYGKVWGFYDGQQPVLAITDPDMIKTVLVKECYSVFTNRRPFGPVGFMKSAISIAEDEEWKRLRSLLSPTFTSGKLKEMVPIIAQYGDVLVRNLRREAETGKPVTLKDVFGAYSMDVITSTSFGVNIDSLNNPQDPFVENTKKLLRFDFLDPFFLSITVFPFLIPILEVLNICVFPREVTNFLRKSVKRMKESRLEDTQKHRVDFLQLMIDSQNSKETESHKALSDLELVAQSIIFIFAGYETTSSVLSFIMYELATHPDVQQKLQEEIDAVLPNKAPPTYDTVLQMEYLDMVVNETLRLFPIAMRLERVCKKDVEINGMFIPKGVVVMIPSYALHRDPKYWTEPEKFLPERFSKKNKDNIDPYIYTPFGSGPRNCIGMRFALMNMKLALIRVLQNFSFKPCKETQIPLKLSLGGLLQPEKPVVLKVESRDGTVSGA

Row | Structure (SMILES) | pIC50 [1] | pIC50 [2]
1 | O=C1OC[C@H](Cc2ccc3c(c2)OCO3)[C@H]1Cc1ccc2c(c1)OCO2 [HINOKININ] | 5.10 | 4.58
2 | COc1cc(C[C@H]2COC(=O)[C@@H]2Cc2cc(OC)c(OC)c(OC)c2)cc(OC)c1OC | 4.83 | < 4.00
3 | C/C=C/c1cc(OC)c(OC)cc1OC [TRANS-ASARONE] | 4.03 | < 4.00
4 | OC[C@H](Cc1ccc2c(c1)OCO2)[C@H](CO)Cc1ccc2c(c1)OCO2 [DIHYDROCUBEBIN] | 5.02 | 4.76
5 | COc1cc(OC)c([C@@H]2[C@H](C)[C@@H](C)[C@H]2c2cc(OC)c(OC)cc2OC)cc1OC [MAGNOSALIN] | 4.07 | < 4.00
6 | O[C@H]1OC[C@H](Cc2ccc3c(c2)OCO3)[C@H]1Cc1ccc2c(c1)OCO2 | 5.04 | 4.45
7 | COc1cc(C[C@@H]2[C@@H](Cc3cc(OC)c4c(c3)OCO4)CO[C@@H]2O)cc(OC)c1OC | 6.08 | < 4.00
8 | CC1=CC(=O)C2=C(C)C[C@@H]3OC(=O)C(C)=C3C[C@@H]12 | 5.06 | < 4.00
9 | COc1cc(C[C@H]2C(O)OC[C@@H]2Cc2ccc3c(c2)OCO3)cc(OC)c1OC (stereo not given in full) | 6.08 | < 4.00
10 | COc1cc([C@H]2OC[C@@H]3C(c4cc(OC)c(O)c(OC)c4)OC[C@H]23)ccc1O (stereo not given in full) [MEDIORESINOL] | 4.86 | < 4.00
11 | COc1cc(C[C@@H](CO)[C@H](CO)Cc2ccc3c(c2)OCO3)cc(OC)c1OC | 6.10 | < 4.00
12 | CCOc1cc(C[C@H]2COC(O)[C@@H]2Cc2cc(OC)c(OC)c(OC)c2)cc2c1OCO2 (stereo not given in full) [ETHOXYCLUSIN] | 6.36 | 4.06
13 | COc1cc(C[C@H]2C(=O)OC[C@@H]2Cc2ccc3c(c2)OCO3)cc(OC)c1OC | 6.00 | 4.02
14 | COc1cc(OC)c(OC)cc1CC(C)=O | 4.54 | < 4.00
15 | COc1cc(C[C@H]2COC(O)[C@@H]2Cc2cc(OC)c(OC)c(OC)c2)cc(OC)c1OC (stereo not given in full) | 4.82 | < 4.00
16 | CC1=C[C@@H](O)[C@@]23O[C@]2(C)C[C@@H]2OC(=O)C(C)=C2C[C@@H]13 | 4.01 | < 4.00
17 | COc1cc(C[C@H]2COC(=O)[C@@H]2Cc2cc(OC)c3c(c2)OCO3)cc(OC)c1O | – | < 4.00
18 | CO[C@@H]1OC[C@H](Cc2ccc3c(c2)OCO3)[C@H]1Cc1ccc2c(c1)OCO2 | 5.11 | < 4.00
